Active and inactive are the calls of the source. No cut-off for these calls is given here.
What was measured:
[1] = tested on: K562; experiment: Antiproliferative activity against human K562 cells assessed as reduction in cell viability incubated for 72 hrs by MTT assay; type: functional, cell-based; conditions: K562, 72 h
[2] = tested on: MDA-MB-231; experiment: Antiproliferative activity against human MDA-MB-231 cells assessed as reduction in cell viability incubated for 72 hrs by MTT assay; type: functional, cell-based; conditions: MDA-MB-231, 72 h
[3] = tested on: SMMC-7721; experiment: Antiproliferative activity against human […] cells assessed as reduction in cell viability incubated for 72 hrs by MTT assay; type: functional, cell-based; conditions: SMMC-7721, 72 h
[4] = tested on: MCF7; experiment: Antiproliferative activity against human MCF7 cells assessed as reduction in cell viability incubated for 72 hrs by MTT assay; type: functional, cell-based; conditions: MCF7, 72 h
[5] = tested on: K562; experiment: Potency index, ratio of IC50 for oridonin to IC50 for test compound for antiproliferative activity against K562 cells; type: functional, Homo sapiens
[6] = tested on: MDA-MB-231; experiment: Potency index, ratio of IC50 for oridonin to IC50 for test compound for antiproliferative activity against MDA-MB-231 cells; type: functional, Homo sapiens
[7] = tested on: SMMC-7721; experiment: Potency index, ratio of IC50 for oridonin to IC50 for test compound for antiproliferative activity against SMMC-7721 cells; type: functional, Homo sapiens
[8] = tested on: MCF7; experiment: Potency index, ratio of IC50 for oridonin to IC50 for test compound for antiproliferative activity against MCF7 cells; type: functional, Homo sapiens
[9] = tested on: H22; experiment: Antitumor activity against mouse H22 cells allografted in ICR mouse assessed as reduction in tumor weight at 8 mg/kg, iv administered every two days for 21 days after 7 days of tumor implantation; type: functional; design: scale not given: the % may be the effect or the level left; conditions: time 21 day
[10] = Toxicity in ICR mouse allografted with mouse H22 cells assessed as reduction in body weight at 8 mg/kg, iv administered every two days for 21 days after 7 days of tumor implantation measured every two days; type: organism-based; conditions: in vivo, 504 h, time 21 day
[11] = tested on: SW480; experiment: Antiproliferative activity against human SW480 cells assessed as reduction in cell viability incubated for 72 hrs by MTT assay; type: functional, cell-based; conditions: SW480, 72 h
[12] = tested on: MGC-803; experiment: Antiproliferative activity against human MGC-803 cells assessed as reduction in cell viability incubated for 72 hrs by MTT assay; type: functional, cell-based; conditions: MGC-803, 72 h
[13] = tested on: HeLa; experiment: Antiproliferative activity against human HeLa cells assessed as reduction in cell viability incubated for 72 hrs by MTT assay; type: functional, cell-based
[14] = Antiproliferative activity against human U-87 MG cells assessed as reduction in cell viability incubated for 72 hrs by MTT assay; type: functional, cell-based, U-87MG ATCC
[15] = tested on: H22; experiment: Antiproliferative activity against mouse H22 cells assessed as reduction in cell viability incubated for 72 hrs by MTT assay; type: functional, cell-based; conditions: H22, 72 h
[16] = Cytotoxicity against human L02 cells assessed as reduction in cell viability incubated for 72 hrs by MTT assay; type: toxicity, cell-based
[17] = Selectivity index, ratio of IC50 for human L02 cells to IC50 for human SMMC-7721 cells; type: toxicity; conditions: L02 cells and SMMC-7721 cells, read-out: Ratio IC50
[18] = tested on: H22; experiment: Antitumor activity against mouse H22 cells allografted in ICR mouse assessed as reduction in tumor volume at 20 mg/kg, iv administered once a day for 21 days after 7 days of tumor implantation measured every two days; type: functional, organism-based; conditions: time 21.0 day
[19] = tested on: H22; experiment: Antitumor activity against mouse H22 cells allografted in ICR mouse assessed as reduction in tumor weight at 20 mg/kg, iv administered once a day for 21 days after 7 days of tumor implantation; type: functional; design: scale not given: the % may be the effect or the level left; conditions: time 21 day
[20] = Toxicity in ICR mouse allografted with mouse H22 cells assessed as change in body weight at 20 mg/kg, iv administered once a day for 21 days after 7 days of tumor implantation measured every two days; type: organism-based; conditions: in vivo, 504 h, time 21 day

Row | IC50 [1] | IC50 [2] | IC50 [3] | IC50 [4] | IC50 [11] | IC50 [12] | IC50 [13] | Compound | Ratio IC50 [5] | Ratio IC50 [6] | Ratio IC50 [7] | Ratio IC50 [8] | Activity [9] | Activity [10] | IC50 [14] | IC50 [15] | IC50 at 72 h [16] | selectivity ratio [17] | Activity [18] | Activity [19] | Activity [20]
1 | 990 nM | 1670 nM | 2090 nM | 1300 nM | – | – | – | C=C1C(=O)[C@@]23C(=O)C[C@@H]4C(C)(C)CCC[C@@]4(COC(C)=O)[C@@H]2CC[C@@H]1[C@H]3OC(C)=O | 4 | 6.9 | 6.2 | 8.5 | – | – | – | – | – | – | – | – | –
2 | – | – | – | – | – | – | – | CC(=O)O[C@H]1C(=O)[C@@]2(C)[C@H]([C@H](OC(=O)c3ccccc3)[C@]3(O)C[C@H](OC(=O)[C@H](O)[C@@H](NC(=O)c4ccccc4)c4ccccc4)C(C)=C1C3(C)C)[C@]1(OC(C)=O)CO[C@@H]1C[C@@H]2O [PACLITAXEL] | – | – | – | – | 90.39% | Toxic | – | – | – | – | – | – | –
3 | 210 nM | 640 nM | 350 nM | 1310 nM | 1110 nM | 1150 nM | 970 nM | C=C1C(=O)[C@]23[C@H](OC(=O)/C=C/c4ccncc4)[C@H]1CC[C@H]2[C@]12C=CCC(C)(C)[C@H]1[C@H](O)[C@@]3(O)OC2 | – | – | – | – | – | – | 1160 nM | 360 nM | 6.23 µM | 17.7 | Active | 56.76% | Non-Toxic
4 | 340 nM | 720 nM | 770 nM | 710 nM | 800 nM | 960 nM | 940 nM | C=C1C(=O)[C@]23[C@H](OC(=O)/C=C/c4ccncc4)[C@H]1CC[C@H]2[C@]12CCCC(C)(C)[C@H]1C[C@@]3(O)OC2 | – | – | – | – | – | – | 900 nM | 780 nM | 5.24 µM | 6.79 | Active | 52.34% | Non-Toxic

From ChEMBL document CHEMBL5154722, “Identification of new potent anticancer derivatives through simplifying the core structure and modification on their 14- hydroxyl group from oridonin” (Eur J Med Chem, 2022)
